Assay results reported in patent publication US10544130B2, “Metallo-beta-lactamase inhibitors” (priority 2015, dated 2020).

Tested on: Pseudomonas aeruginosa PAO1 MB9798 (efflux+, IMP-1)
Conditions: ratio MITC95 PA 9798/MITC95 PA 9799; imipenem at 2 μg/mL
Outline: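 Isogenic PAO1 pair (efflux+ MB9798, efflux− MB9799, both IMP-1) tested by microbroth MIC with fixed imipenem and/or ceftazidime, usually at CLSI breakpoint, plus fixed class A/C inhibitor against AmpC. MBL inhibitor titrated; concentration restoring susceptibility recorded and fold difference between strains taken as efflux extent.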

NCCNS(=O)(=O)c1ccc(-c2cc(F)cc3[nH]c(N)nc23)c(-c2nnn[nH]2)c1S(N)(=O)=O [Example 180, 4-(2-amino-6-fluoro-1H-benzo[d]imidazol-4-yl)-N^1-(2-aminoethyl)-3-(1H-tetrazol-5-yl)benzene-1,2-disulfonamide]
Efflux ratio: 0.50

CC(N)CNS(=O)(=O)c1ccc(-c2cccc3sc(N)nc23)c(-c2nnn[nH]2)c1S(N)(=O)=O.O=C(O)C(F)(F)F (stereo not drawn) [Example 109, l-(4-(2-aminobenzo[d]thiazol-4-yl)-2-sulfamoyl-3-(1H-tetrazol-5-yl)phenylsulfonamido) propan-2-aminium 2,2,2-trifluoroacetate]
Efflux ratio: 0.50

Nc1ccc(-c2ccc(S(=O)(=O)NC[C@@H]3CNCCN3)c(S(N)(=O)=O)c2-c2nn[nH]n2)cn1 [Example 312, (S)-4-(6-aminopyridin-3-yl)-N1-(piperazin-2-ylmethyl)-3-(2H-tetrazol-5-yl)benzene-1,2-disulfonamide]
Efflux ratio: 1.00

Cc1ccc(-c2ccc(S(N)(=O)=O)c(S(N)(=O)=O)c2-c2nn[nH]n2)c2nc(N)sc12 [Example 6, 4-(2-amino-7-methylbenzo[d]thiazol-4-yl)-3-(2H-tetrazol-5-yl)benzene-1,2-disulfonamide]
Efflux ratio: 1.00

NS(=O)(=O)c1c(S(=O)(=O)N[C@@H]2CCNC2)ccc(-c2cnc3ccccn23)c1-c1nnn[nH]1 [Example 140, (R)-4-(imidazo[1,2-a]pyridin-3-yl)-N1-(pyrrolidin-3-yl)-3-(1H-tetrazol-5-yl)benzene-1,2-disulfonamide]
Efflux ratio: 2.00

Nc1nc2c(-c3ccc(S(=O)(=O)NCC4CNCCO4)c(S(N)(=O)=O)c3-c3nnn[nH]3)cccc2s1.O=C(O)C(F)(F)F (stereo not drawn) [Example 112, 2-((4-(2-aminobenzo[d]thiazol-4-yl)-2-sulfamoyl-3-(1H-tetrazol-5-yl)phenylsulfonamido)methyl)morpholin-4-ium 2,2,2-trifluoroacetate]
Efflux ratio: 1.00

Nc1nc2c(-c3ccc(S(=O)(=O)N[C@@H]4CN[C@H](CO)C4)c(S(N)(=O)=O)c3-c3nnn[nH]3)cccc2[nH]1 [Example 175, 4-(2-amino-1H-benzo[d]imidazol-4-yl)-N^1 - ((3S,5S)-5-(hydroxymethyl)pyrrolidin-3-yl)-3-(1H-tetrazol-5-yl)benzene-1,2-disulfonamide]
Efflux ratio: 0.50

Nc1ccc(-c2ccc(S(=O)(=O)NC[C@@H](N)CO)c(S(N)(=O)=O)c2-c2nn[nH]n2)cn1 [Example 365, (R)—N1-(2-amino-3-hydroxypropyl)-4-(6-aminopyridin-3-yl)-3-(2H-tetrazol-5-yl) benzene-1,2-disulfonamide]
Efflux ratio: 2.00

CN([C@H]1CCNC1)S(=O)(=O)c1ccc(-c2cccc3sc(N)nc23)c(-c2nnn[nH]2)c1S(N)(=O)=O [Example 65, 4-(2-amino-1,3-benzothiazol-4-yl)-N1-methyl-N1-[(3S)-pyrrolidin-3-yl]-3-(1H-tetrazol-5-yl)benzene-1,2-disulfonamide]
Efflux ratio: 2.00

NS(=O)(=O)c1c(S(=O)(=O)N[C@@H]2CCNC2)ccc(-c2cccnc2N2CCNCC2)c1-c1nn[nH]n1 [Example 220, (R)-4-(2-(piperazin-1-yl)pyridin-3-yl)-N1-(pyrrolidin-3-yl)-3-(2H-tetrazol-5-yl)benzene-1,2-disulfonamide]
Efflux ratio: 4.00

Nc1nc2c(-c3ccc(S(=O)(=O)NC4CNC[C@H]4N)c(S(N)(=O)=O)c3-c3nn[nH]n3)cccc2[nH]1 (stereo in doubt) [Example 322, 4-(2-Amino-1H-benzo[d]imidazol-4-yl)-N1-((3S,4R)-4-aminopyrrolidin-3-yl)-3-(2H-tetrazol-5-yl)benzene-1,2-disulfonamide]
Efflux ratio: 0.83

CC(CN)NS(=O)(=O)c1ccc(-c2cccc3sc(N)nc23)c(-c2nnn[nH]2)c1S(N)(=O)=O.O=CO (stereo not drawn) [Example 116, 2-(4-(2-aminobenzo[d]thiazol-4-yl)-2-sulfamoyl-3-(1H-tetrazol-5-yl)phenylsulfonamido) propan-1-aminium formate]
Efflux ratio: 0.50

Nc1nc2c(-c3ccc(S(=O)(=O)N[C@H]4CO[C@H]5[C@@H]4OC[C@H]5N)c(S(N)(=O)=O)c3-c3nnn[nH]3)cccc2s1.O=C(O)C(F)(F)F [Example 103, (3R,3aR,6S,6aR)-6-(4-(2-aminobenzo[d]thiazol-4-yl)-2-sulfamoyl-3-(1H-tetrazol-5-yl)phenylsulfonamido) hexahydrofuro[3,2-b] furan-3-aminium 2,2,2-trifluoroacetate]
Efflux ratio: 2.00

Nc1nc2c(-c3ccc(S(=O)(=O)NCC4(N)CCOCC4)c(S(N)(=O)=O)c3-c3nnn[nH]3)cccc2s1.O=CO [Example 115, 4-((4-(2-aminobenzo[d]thiazol-4-yl)-2-sulfamoyl-3-(1H-tetrazol-5-yl)phenylsulfonamido)methyl)tetrahydro-2H-pyran-4-aminium formate]
Efflux ratio: 1.00

Nc1nc2c(-c3ccc(S(=O)(=O)N4CC[S+]([O-])CC4)c(S(N)(=O)=O)c3-c3nnn[nH]3)cccc2s1 [Example 44, 3-(2-amino-1,3-benzothiazol-4-yl)-6-[(1-oxidothiomorpholin-4-yl)sulfonyl]-2-(1H-tetrazol-5-yl)benzenesulfonamide]
Efflux ratio: 2.00

NC[C@H](N)CNS(=O)(=O)c1ccc(-c2cnccc2N)c(-c2nn[nH]n2)c1S(N)(=O)=O [Example 223, (S)-4-(4-aminopyridin-3-yl)-N1-(2,3-diaminopropyl)-3-(2H-tetrazol-5-yl)benzene-1,2-disulfonamide]
Efflux ratio: 2.00

CC(CN1CCOCC1)NS(=O)(=O)c1ccc(-c2cccc3sc(N)nc23)c(-c2nnn[nH]2)c1S(N)(=O)=O (stereo not drawn) [Example 51, 4-(2-amino-1,3-benzothiazol-4-yl)-N1-(1-methyl-2-morpholin-4-ylethyl)-3-(1H-tetrazol-5-yl)benzene-1,2-disulfonamide]
Efflux ratio: 4.00

NCCNS(=O)(=O)c1ccc(-c2ccc(N)nc2)c(-c2nn[nH]n2)c1S(N)(=O)=O [Example 196, N^1-(2-aminoethyl)-4-(6-aminopyridin-3-yl)-3-(2H-tetrazol-5-yl)benzene-1,2-disulfonamide]
Efflux ratio: 1.00

Nc1nc2c(-c3ccc(S(=O)(=O)N[C@@H]4CNC[C@H]4O)c(S(N)(=O)=O)c3-c3nnn[nH]3)cccc2[nH]1 [Example 171, 4-(2-amino-1H-benzo[d]imidazol-4-yl)-N^1-((3R,4R)-4-hydroxypyrrolidin-3-yl)-3-(1H-tetrazol-5-yl)benzene-1,2-disulfonamide]
Efflux ratio: 0.50

Nc1nc2c(-c3ccc(S(=O)(=O)NC4(CO)CCNC4)c(S(N)(=O)=O)c3-c3nnn[nH]3)cccc2s1 (stereo not drawn) [Example 83, 4-(2-amino-1,3-benzothiazol-4-yl)-N1-[3-(hydroxymethyl)pyrrolidin-3-yl]-3-(1H-tetrazol-5-yl)benzene-1,2-disulfonamide]
Efflux ratio: 0.50

Nc1nc2c(-c3ccc(S(=O)(=O)NCC4CCC(=O)N4)c(S(N)(=O)=O)c3-c3nnn[nH]3)cccc2s1 (stereo not drawn) [Example 19, 4-(2-amino-1,3-benzothiazol-4-yl)-N1-[(5-oxopyrrolidin-2-yl)methyl]-3-(1H-tetrazol-5-yl)benzene-1,2-disulfonamide]
Efflux ratio: 1.00

NS(=O)(=O)c1c(S(=O)(=O)N[C@@H]2CCNC2)ccc(-c2cccc3[nH]nnc23)c1-c1nn[nH]n1 [Example 235, (R)-4-(1H-benzo[d][1,2,3]triazol-4-yl)-N^1-(pyrrolidin-3-yl)-3-(2H-tetrazol-5-yl)benzene-1,2-disulfonamide]
Efflux ratio: 0.50

NC[C@@H]1CCN(S(=O)(=O)c2ccc(-c3cccc4sc(N)nc34)c(-c3nnn[nH]3)c2S(N)(=O)=O)C1 [Example 70, 3-(2-amino-1,3-benzothiazol-4-yl)-6-{[(3S)-3-(aminomethyl)pyrrolidin-1-yl]sulfonyl}-2-(1H-tetrazol-5-yl)benzenesulfonamide]
Efflux ratio: 1.00

NC(=O)[C@H](N)CNS(=O)(=O)c1ccc(-c2cccc3[nH]c(N)nc23)c(-c2nn[nH]n2)c1S(N)(=O)=O [Example 188, (2R)-2-amino-3-(4-(2-amino-1H-benzo[d]imidazol-4-yl)-2-sulfamoyl-3-(2H-tetrazol-5-yl)phenylsulfonamido)propanamide]
Efflux ratio: 0.50

NCC(CN)NS(=O)(=O)c1ccc(-c2cccc(C3N=NC(N)=N3)c2)c(-c2nn[nH]n2)c1S(N)(=O)=O (stereo not drawn) [Example 229, 3′-(5-amino-3H-1,2,4-triazol-3-yl)-N4-(1,3-diaminopropan-2-yl)-2-(2H-tetrazol-5-yl)-[1,1′-biphenyl]-3,4-disulfonamide]
Efflux ratio: 0.50

COCCNS(=O)(=O)c1ccc(-c2cccc3sc(N)nc23)c(-c2nnn[nH]2)c1S(N)(=O)=O [Example 24, 4-(2-amino-1,3-benzothiazol-4-yl)-N^1-(2-methoxyethyl)-3-(1H-tetrazol-5-yl)benzene-1,2-disulfonamide]
Efflux ratio: 4.00

C[C@H](CN)NS(=O)(=O)c1ccc(-c2cccc3[nH]nnc23)c(-c2nn[nH]n2)c1S(N)(=O)=O [Example 237, (R)-N^1-(1-aminopropan-2-yl)-4-(1H-benzo[d][1,2,3]triazol-4-yl)-3-(2H-tetrazol-5-yl)benzene-1,2-disulfonamide]
Efflux ratio: 0.50

NS(=O)(=O)c1c(S(=O)(=O)N[C@@H]2CCNC2)ccc(-c2cccc3cn[nH]c23)c1-c1nnn[nH]1 [Example 139, (R)-4-(1H-indazol-7-yl)-N1-(pyrrolidin-3-yl)-3-(1H-tetrazol-5-yl)benzene-1,2-disulfonamide]
Efflux ratio: 1.00

NC[C@H](N)CNS(=O)(=O)c1ccc(-c2cccc3ccc(N)nc23)c(-c2nn[nH]n2)c1S(N)(=O)=O [Example 371, (S)-4-(2-aminoquinolin-8-yl)-N1-(2,3-diaminopropyl)-3-(2H-tetrazol-5-yl)benzene-1,2-disulfonamide]
Efflux ratio: 1.00

Nc1nc2c(-c3ccc(S(=O)(=O)NC4CNC4)c(S(N)(=O)=O)c3-c3nn[nH]n3)cccc2s1 [Example 146, 4-(2-aminobenzo[d]thiazol-4-yl)-N1-(azetidin-3-yl)-3-(2H-tetrazol-5-yl)benzene-1,2-disulfonamide]
Efflux ratio: 0.50
